The subject of series [1] is SIV-env. As to the kind of experiment: ImmunoPET/CT, four-cycle study. Type of series: in vivo, rhesus macaques. On the procedure:
ImmunoPET/CT for mapping SIV signals in total body scans were conducted in part as reported previously (110). The probe consisted of primatized p7D3 anti-env F(ab)′2 coupled with the chelator DOTA and labeled with Cu64 just prior to administration to the animals. For probe administration, the animals were sedated, and a venous catheter was placed into an arm of leg vein to minimize bleeding of the probe into the tissue surrounding the site of injection. The probe for each animal consisted of ˜1 mg of the p7D3 F(ab)′2 labeled with 2-3 mCi of ^64Cu. After injection, the animals were allowed to recuperate in their cage until the next day. At 24 hours, the animals were again anesthetized with Telazol and the macaque's body was immobilized in dorsal recumbency on the scanner table. Scans were conducted 535 in a Phillips Gemini TF64 scanner. The final CT image was compiled from 200 to 300 slices, depending on macaque size. PET Image analysis was performed using the MIM software. PET/CT fusions were generated scaled according to calculated Standardized Uptake Values (SUV). The SUV scale for the PET scans was selected based on the overall signal intensity of the PET scans (whole body), and the CT scale was selected for optimal visibility of the tissues. All images and maximum image projections were set to the same scale for visual comparisons.
Multimodal registration and ROI segmentation were executed using the MIM software (MIM Software, Inc., Cleveland, OH) for PET and CT images, encompassing 250 to 300 fractions, depending on the macaque's body size. PET and CT images were fused to quantify changes in SUV (Standardized Uptake Value) within Regions of Interest (ROI), with PET SUV scale determined by overall signal intensity and CT scale optimized for tissue visibility. Segmentations were performed for various anatomical regions: Whole Body, Liver, Lymph nodes, Gut, Kidneys, Spleen, and Vertebrae. The external body was outlined for the Whole-Body contour, while the GRADIENT method PET-Edge and interactive contouring tools were employed for other ROIs. Liver segmentation initially utilized PET-Edge in PET coronal-sectional view, followed by interactive delineation for the structure and the corresponding signals. Kidneys, Spleen, and Vertebrae volume were determined based on CT scans in the cross-sectional view, incorporating PET signals into contours. […] To quantify the signal in the axillary lymph nodes, the data-point in each macaque featuring the strongest PET signal was chosen as a basis for an inhouse Multi-Time-Point Contour Transfer Workflow, followed by interactive contouring of the signal to all time points. The workflow integrated CT scans to establish and map specific ROIs in subsequent scans, thereby accounting for any changes in the animal's orientation at other time points through manual adjustments. To quantify the signal in the gut tissue, the body segment below the stomach to above the cervix was initially isolated. The Gut's SUV was then calculated by extracting the spleen, both kidneys, liver, and bones within the designated body region using Boolean operations.

Series [2] concerns T and NK cells. In words: High parameter flow cytometry of PBMC T and NK cells. Type of series: in vivo, rhesus macaques. From the text:
Colorectal biopsy tissues were isolated by enzymatic digestion while LN biopsies were passed through a 70 μm cell strainer as described in (110). FlowJo vs 10.8 was use for both classical and high-dimensional analysis. PeacoQC, FlowtSNE and FlowSOM plug-ins were used with default settings. SwiftReg was used for normalization (113).
Peripheral blood mononuclear cells (PBMCs) collected from 8 macaques at 7 time points spanning Cycle 1 to Cycle 4 (refer to Table 5) were employed for high-parameter flow cytometry staining. Cells from before and after cycle 1 and at the end of cycle 3 were used for Tfh/Treg assay. In both cases, cell fixation and permeabilization for intracellular staining were carried out using the FoxP3 Staining Buffer set (Thermo Fisher Scientific, Carlsbad, CA). The high-dimensional panel consisted of antibodies outlined in Table 4, catering to requirements for surface and intracellular staining, as well as viability assessment. Each antibody was individually titrated to ensure optimal staining conditions. Data acquisition was performed using the FACSymphony A5.2 Spectral Analyzer. Following data collection, spectral compensation was implemented utilizing FlowJo™ v10.8 Software (BD Life Sciences). 60,000 live singlet lymphocytes from each of samples was downsampled to prevent disproportionate representation by samples with higher cell counts, ensuring balanced subsequent analysis. To mitigate batch effects, we utilized the swiftReg Neighbor-Dependent Cluster Registration (NDCR) method available within the SWIFT package(112). This method effectively addresses batch variations while preserving the inherent biological diversity. […] Furthermore, we implemented the Peak Extraction and Cleaning Oriented Quality Control (PeacoQC) procedure (138) in FlowJo™ v10.8 to eliminate low-quality events arising from potential issues like clogs, speed fluctuations, and slow sample uptake. FlowSOM FlowJo plugin was employed for automated cell population identification, preceded by the utilization of Phenograph to obtain optimal cluster numbers for dimensional reduction, for the merged data of All Time points and BC1 vs AC4 merged data respectively. The Supplementary FIG. 29A heatmap illustrates the median fluorescence intensity (MFI) values for all markers across all clusters. A tSNE plot, generated in FlowJo™ using the markers employed in the FlowSOM analysis, is presented, with coloring based on the FlowSOM clustering or two specific time points, BC1 vs AC4 in FIG. 4G.
On the technique in general: In flow cytometry, cells or beads pass a laser one at a time.

Results on one molecule are retold here after patent US20240197712A1, “TGF-BETA INHIBITION FOR IMMUNODEFICIENCY VIRUS REACTIVATION FROM LATENCY, ENHANCEMENT OF IMMUNODEFICIENCY VIRUS-SPECIFIC RESPONSES AND IMMUNODEFICIENCY VIRUS CURE” (Northwestern University, priority 2022, published 2024).

For the molecule `Cc1cccc(-c2nn3c(c2-c2ccnc4ccc(C(N)=O)cc24)CCC3)n1` [galunisertib, Galunisertib], the “SIV reactivation in tissues by PET/CT” value in series [1] (Example 5, all macaques, particularly after cycle 2) is listed as “Extensive SIV reactivation”. Further, in series [1] (compared to before cycle 1 (BC1)), the “SUV increase in gastrointestinal area and axillary lymph nodes” value is reported as “significant in cycle 3”. Further, in series [1] (vs BC1), the “SUV at the level of the spleen or kidney” value is recorded as “No SUV increase”; the “SUV in the liver and whole-body” value was “significant increase in SUV”; the “Spine SUV” value is on record as “increased significantly with the first cycle”. In addition, the “proliferation marker Ki67 in NK cells” value in series [2] (AC1 vs BC1) is listed as “initial increase”. Moreover, in series [2] (BC2 vs BC1), the “T-Bet in CD8+ T cells” value is listed as “significant decrease”. Besides, the systemic immune activation entry in series [2] (Example 5, end of 1st cycle, PBMC RNAseq, CD69 and CD38 on T cells) is reported as “did non induce systemic immune activation”. The “effector phenotype in T cells (CD95, CD62L)” value in series [2] (Example 5, preliminary data) is recorded as “increased expression of CD95”. Further, in series [2] (PBMC, throughout treatment), the “TCF1 expression in CD4+ T cells” value was “profound consistent decrease” and the “expression of CD95 in CD4+ T cells” value is reported as “substantial increase”. In addition, the “CD62L in CD4+ T cells” value in series [2] (after the first cycle, reverted to baseline later) is recorded as “small decrease”. For the same molecule, the “expression of activation markers CD69, HLA-DR and Ki67 in CD4+ T cells” value in series [2] (exception: HLA-DR increase at beginning of cycle 2) is reported as “remained mostly unchanged”. For the same molecule, in series [2] (rhesus monkey, in vivo), the “CCR7 expression in memory CD8+ T cells” value is reported as “sustained significant increase”, the “CD16 expression within NKG2A+CD8+ NK cells” value is reported as “pronounced increase”, the “CD95 expression in CD8+ T cells” value was “No significant increase” and the “TCF1 downregulation in CD8+ T cells” value was “reached significance only at the end of the treatment”. In series [2] (rhesus monkey, in vivo), the “expression of CCR7 or CD28 within CD95+CD4+ T cells” value is on record as “no change”; the “expression of PD1 on CD4+ and CD8+ T cells” value is given as “either did not change or was slightly downregulated”; the “frequency of naïve (CD95−) cells within CD4+ T cells” value is “decreased”; the “gut homing receptor integrin α4β7 in CD4+ T cells” value is recorded as “downregulation”. In series [2] (rhesus monkey, in vivo), the “levels of T-bet in CD4+ T cells” value was “did not change significantly” and the “levels of granzyme B in CD4+ T cells” value is on record as “decrease”.
